Values of other authors in patent US7825135B2, “Heteroaryl piperidine glycine transporter inhibitors” (Merck Sharp & Dohme Limited, priority 2004, dated 2010).

Legend:
NMDA receptor = details: rat; blockade of GlyT1
[1] = mice
[2] = high doses, oral, add-on to standard neuroleptic therapy
[3] = schizophrenia patients poorly responsive to antipsychotic drugs

For CN(CCC(Oc1ccc(-c2ccccc2)cc1)c1ccc(F)cc1)CC(=O)O (stereo not shown) [NFPS], the “effect on NMDA receptor activity and NMDA receptor-dependent long-term potentiation” value (NMDA receptor) is listed as “potentiates NMDA receptor activity and NMDA receptor-dependent long-term potentiation” and the “effect on pre-pulse inhibition (sensory gating)” value [1] is listed as “enhance pre-pulse inhibition”.

For NCC(=O)O [glycine], the “effect on symptoms of schizophrenia patients” value [2] is listed as “improvement of the symptoms”.

In the case of CNCC(=O)O [sarcosine], the “effect on positive, negative and cognitive symptoms” value [3] is listed as “beneficial effect”.
